Patent US6410577B1, “Substituted 8,8a-dihydro-3ah-indeno[1,2-d]thiazoles, processes for their preparation and their use as medicaments” (Aventis Pharma Deutschland GmbH, priority 2000, dated 2002)

Test system: female NMRI mice
Test: Anorectic action: milk consumption of fasted mice after oral administration
Type: in vivo, mouse
Procedure: The efficacy of the compounds was tested as follows:
The anorectic action was tested on female NMRI mice. After withdrawal of food for 24 hours, a test preparation of the invention was administered via a stomach tube. Kept individually and with free access to drinking water, the animals were offered evaporated milk 30 minutes after the administration of the preparation. The consumption of evaporated milk was determined half-hourly for 1.5 hours and the general condition of the animals was observed. The measured milk consumption was compared with that of untreated control animals.

## OC1c2cc(Cl)ccc2C2(O)N=C(c3ccccc3)SC12 (centres unmarked) [Example 1, 6-Chloro-2-phenyl-8,8a-dihydroindeno[1,2-d]thiazole-3a,8-diol]
Food withdrawn for 24 hours, oral dose 30 mg/kg via stomach tube, evaporated milk offered 30 minutes after administration, consumption determined half-hourly for 1.5 hours
  cumulated milk consumption of the treated animals: 5/1.06 ml
Oral dose 30 mg/kg, compared to untreated control animals, 1.5 hours
  Reduction of the cumulated milk consumption in % of the control: 31%
